Source: ChEMBL document CHEMBL4421728, “Bach1 Inhibitors in Combination with Nrf2 Activators and Pharmaceutical Compositions Thereof” (2017)

Legend:
[1] = target: T1, Transcription regulator protein BACH1 (Homo sapiens) (UniProt O14867); test: Inhibition of Bach1 in normal human lung fibroblasts assessed as induction of HMOX protein expression by measuring HMOX positive cells level at 0.078 uM incubated for 16 to 18 hrs by immunostaining relative to control DMSO; parameters: scale not given: the % may be the effect or the level left
T1 sequence (whole entry): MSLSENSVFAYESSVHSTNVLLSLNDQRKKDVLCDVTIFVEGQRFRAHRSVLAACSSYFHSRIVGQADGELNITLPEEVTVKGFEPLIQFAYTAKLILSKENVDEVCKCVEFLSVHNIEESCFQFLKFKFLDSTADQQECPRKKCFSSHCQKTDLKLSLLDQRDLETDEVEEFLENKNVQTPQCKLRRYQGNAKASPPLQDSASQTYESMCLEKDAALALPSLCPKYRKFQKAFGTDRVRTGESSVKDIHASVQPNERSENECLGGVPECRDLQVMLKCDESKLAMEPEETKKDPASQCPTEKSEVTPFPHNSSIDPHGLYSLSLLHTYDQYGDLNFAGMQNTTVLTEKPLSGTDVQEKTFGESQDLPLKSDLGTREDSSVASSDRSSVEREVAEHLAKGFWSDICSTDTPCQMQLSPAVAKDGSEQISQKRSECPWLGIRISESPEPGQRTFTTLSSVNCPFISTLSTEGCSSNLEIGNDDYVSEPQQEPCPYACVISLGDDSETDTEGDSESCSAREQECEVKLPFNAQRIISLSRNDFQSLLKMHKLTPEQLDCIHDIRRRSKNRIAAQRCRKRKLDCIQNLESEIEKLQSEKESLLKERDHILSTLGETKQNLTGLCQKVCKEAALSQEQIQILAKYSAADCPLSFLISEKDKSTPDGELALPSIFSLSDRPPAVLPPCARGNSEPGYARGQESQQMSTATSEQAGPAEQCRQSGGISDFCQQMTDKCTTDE

[2] = target: T1, Transcription regulator protein BACH1 (Homo sapiens); test: Inhibition of Bach1 in normal human lung fibroblasts assessed as induction of HMOX protein expression by measuring HMOX positive cells level at 0.156 uM incubated for 16 to 18 hrs by immunostaining relative to control DMSO; parameters: scale not given: the % may be the effect or the level left
[3] = target: T1, Transcription regulator protein BACH1 (Homo sapiens); test: Inhibition of Bach1 in normal human lung fibroblasts assessed as induction of HMOX protein expression by measuring HMOX positive cells level at 0.078 uM in presence of 0.03 uM Nrf2 activator DMF incubated for 16 to 18 hrs by immunostaining relative to control DMSO; parameters: scale not given: the % may be the effect or the level left
[4] = target: T1, Transcription regulator protein BACH1 (Homo sapiens); test: Inhibition of Bach1 in normal human lung fibroblasts assessed as induction of HMOX protein expression by measuring HMOX positive cells level at 0.156 uM in presence of 0.03 uM Nrf2 activator DMF incubated for 16 to 18 hrs by immunostaining relative to control DMSO; parameters: scale not given: the % may be the effect or the level left
[5] = target: T1, Transcription regulator protein BACH1 (Homo sapiens); test: Inhibition of Bach1 in normal human lung fibroblasts assessed as induction of HMOX protein expression by measuring HMOX positive cells level at 0.078 uM in presence of 0.3 uM Nrf2 activator DMF incubated for 16 to 18 hrs by immunostaining relative to control DMSO; parameters: scale not given: the % may be the effect or the level left
[6] = target: T1, Transcription regulator protein BACH1 (Homo sapiens); test: Inhibition of Bach1 in normal human lung fibroblasts assessed as induction of HMOX protein expression by measuring HMOX positive cells level at 0.078 uM in presence of 3 uM Nrf2 activator DMF incubated for 16 to 18 hrs by immunostaining relative to control DMSO; parameters: scale not given: the % may be the effect or the level left
[7] = target: T1, Transcription regulator protein BACH1 (Homo sapiens); test: Inhibition of Bach1 in normal human lung fibroblasts assessed as induction of HMOX protein expression by measuring HMOX positive cells level at 0.019 uM in presence of 10 uM Nrf2 activator DMF incubated for 16 to 18 hrs by immunostaining relative to control DMSO; parameters: scale not given: the % may be the effect or the level left
[8] = target: T1, Transcription regulator protein BACH1 (Homo sapiens); test: Inhibition of Bach1 in normal human lung fibroblasts assessed as induction of HMOX protein expression by measuring HMOX positive cells level at 0.078 uM in presence of 10 uM Nrf2 activator DMF incubated for 16 to 18 hrs by immunostaining relative to control DMSO; parameters: scale not given: the % may be the effect or the level left
[9] = target: T1, Transcription regulator protein BACH1 (Homo sapiens); test: Inhibition of Bach1 in normal human lung fibroblasts assessed as induction of HMOX protein expression at 0.039 uM incubated for 16 to 18 hrs by immunostaining relative to control
[10] = target: T1, Transcription regulator protein BACH1 (Homo sapiens); test: Inhibition of Bach1 in normal human lung fibroblasts assessed as induction of HMOX protein expression at 0.078 uM incubated for 16 to 18 hrs by immunostaining relative to control
[11] = target: T1, Transcription regulator protein BACH1 (Homo sapiens); test: Inhibition of Bach1 in normal human lung fibroblasts assessed as induction of HMOX protein expression at 0.019 uM in presence of 0.03 uM Nrf2 activator DMF incubated for 16 to 18 hrs by immunostaining relative to control
[12] = target: T1, Transcription regulator protein BACH1 (Homo sapiens); test: Inhibition of Bach1 in normal human lung fibroblasts assessed as induction of HMOX protein expression at 0.039 uM in presence of 0.03 uM Nrf2 activator DMF incubated for 16 to 18 hrs by immunostaining relative to control
[13] = target: T1, Transcription regulator protein BACH1 (Homo sapiens); test: Inhibition of Bach1 in normal human lung fibroblasts assessed as induction of HMOX protein expression at 0.156 uM in presence of 0.1 uM Nrf2 activator DMF incubated for 16 to 18 hrs by immunostaining relative to control
[14] = target: T1, Transcription regulator protein BACH1 (Homo sapiens); test: Inhibition of Bach1 in normal human lung fibroblasts assessed as induction of HMOX protein expression at 0.019 uM in presence of 0.3 uM Nrf2 activator DMF incubated for 16 to 18 hrs by immunostaining relative to control
[15] = target: T1, Transcription regulator protein BACH1 (Homo sapiens); test: Inhibition of Bach1 in normal human lung fibroblasts assessed as induction of HMOX protein expression at 0.039 uM in presence of 0.3 uM Nrf2 activator DMF incubated for 16 to 18 hrs by immunostaining relative to control
[16] = target: T1, Transcription regulator protein BACH1 (Homo sapiens); test: Inhibition of Bach1 in normal human lung fibroblasts assessed as induction of HMOX protein expression at 0.078 uM in presence of 1 uM Nrf2 activator DMF incubated for 16 to 18 hrs by immunostaining relative to control
[17] = target: T1, Transcription regulator protein BACH1 (Homo sapiens); test: Inhibition of Bach1 in normal human lung fibroblasts assessed as induction of HMOX protein expression at 0.019 uM in presence of 3 uM Nrf2 activator DMF incubated for 16 to 18 hrs by immunostaining relative to control
[18] = target: T1, Transcription regulator protein BACH1 (Homo sapiens); test: Inhibition of Bach1 in normal human lung fibroblasts assessed as induction of HMOX protein expression at 0.156 uM in presence of 3 uM Nrf2 activator DMF incubated for 16 to 18 hrs by immunostaining relative to control
[19] = target: T1, Transcription regulator protein BACH1 (Homo sapiens); test: Inhibition of Bach1 in normal human lung fibroblasts assessed as induction of HMOX protein expression at 0.019 uM in presence of 10 uM Nrf2 activator DMF incubated for 16 to 18 hrs by immunostaining relative to control
[20] = target: T1, Transcription regulator protein BACH1 (Homo sapiens); test: Inhibition of Bach1 in normal human lung fibroblasts assessed as induction of HMOX protein expression at 0.078 uM in presence of 30 uM Nrf2 activator DMF incubated for 16 to 18 hrs by immunostaining relative to control

Activity [1] | Activity [2] | Activity [3] | Activity [4] | Activity [5] | Activity [6] | Activity [7] | Activity [8] | fold change (FC) [9] | fold change (FC) [10] | fold change (FC) [11] | fold change (FC) [12] | fold change (FC) [13] | fold change (FC) [14] | fold change (FC) [15] | fold change (FC) [16] | fold change (FC) [17] | fold change (FC) [18] | fold change (FC) [19] | fold change (FC) [20] | SMILES
7.12% | 28.6% | 5.99% | 22.1% | 16.2% | 81.8% | 94.2% | 97.2% | 1.37 | 1.59 | 1.1 | 1.28 | 2.54 | 1.24 | 1.61 | 2.53 | 2.86 | 4.57 | 5.75 | 6.18 | CN(C)C(=O)CNC(=O)c1ccc2c(c1)nc(Nc1nc3ccc(C(F)(F)F)cc3s1)n2C
74% | 96.3% | 33.5% | 92.5% | 61.5% | 90.3% | 96.1% | 97.7% | 2.51 | 4.34 | 1.31 | 1.81 | 4.89 | 1.44 | 1.81 | 3.83 | 3.55 | 7.69 | 5.12 | 4.8 | Cn1c(Nc2nc3ccc(C(F)(F)F)cc3s2)nc2cc(C(=O)NCCOCCO)ccc21
8.23% | 11.3% | 1.72% | 8.51% | 10.3% | 55.2% | 92.6% | 94.5% | 1.45 | 1.46 | 1.17 | 1.07 | 1.73 | 1.43 | 1.59 | 2.29 | 2.98 | 3.63 | 4.94 | 4.52 | COCCNC(=O)c1cnc2c(c1)nc(Nc1nc3ccc(OC(F)(F)F)cc3s1)n2C
– | – | – | – | – | – | – | – | 1.09 | 1.92 | – | – | – | – | – | – | – | – | – | – | CNC(=O)c1ccc2c(c1)nc(Nc1nc3ccc(OC(F)(F)F)cc3s1)n2C
